Laboratory results from US10344019B2 (priority 2010, dated 2019).
Like-named read-outs stand apart in the source and are kept apart here.

Key:
Type in all cases: cell-based
[1] = test system: HCV 4a Rluc cells (NS5A chimeric genotype 1b Con1 replicon with genotype 4a NS5A gene); assay: microbe, parasite or virus in culture; details: Hepatitis C virus, read-out: 4a
Procedure, shortened: (§1)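 Replicon cells stably carrying the listed RLuc-encoding dicistronic replicons were seeded and treated with DMSO serial dilutions of compound (10 mM stocks) diluted into culture medium. After 72 h, cells were lysed and Renilla luciferase activity measured. EC50 was derived by non-linear regression.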

[2] = test system: HCV 3a RLuc cells (NS5A chimeric genotype 1b Con1 replicon with consensus genotype 3a NS5A gene); assay: microbe, parasite or virus in culture
Procedure, shortened: as §1

[3] = test system: HCV 2b Rluc cells (NS5A chimeric genotype 2a JFH-1 replicon with genotype 2b MD2b-1 NS5A gene, M31 present); assay: microbe, parasite or virus in culture; details: Hepatitis C virus, read-out: 2b
Procedure, shortened: as §1

[4] = test system: HCV 1b RLuc cells (dicistronic genotype 1b Con1 replicon, RLuc reporter); assay: microbe, parasite or virus in culture; details: Hepatitis C virus, read-out: 1b (nM)
Procedure, shortened: (§2)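 Renilla luciferase HCV replicon cells: dicistronic 1b Con1, 1a H77 or 2a JFH-1 replicons, or a JFH-1 chimera carrying J6 NS5A (M31 present). Compound in DMSO serial dilutions, 72 h incubation, then lysis and luciferase read. EC50 by non-linear regression.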

[5] = test system: HCV 1a RLuc cells (dicistronic genotype 1a H77 replicon, RLuc reporter); assay: microbe, parasite or virus in culture; details: Hepatitis C virus, read-out: 1a
Procedure, shortened: as §2

[6] = test system: HCV 2a JFH-1 Rluc cells (dicistronic genotype 2a JFH-1 replicon, RLuc reporter); assay: microbe, parasite or virus in culture; details: Hepatitis C virus, read-out: 2a JFH
Procedure, shortened: as §2

[7] = test system: HCV 2a Rluc cells (NS5A chimeric genotype 2a JFH-1 replicon with genotype 2a J6 strain NS5A gene, M31 present); assay: HCV replicon reporter assay, genotype 2a J6 (M31 present); details: Hepatitis C virus, read-out: 2a J6
Procedure, shortened: as §2

[8] = Hepatitis C virus, read-out: 3a, genotype 3a NS5A chimeric 1b Con1 replicon
[9] = genotype 1a H77 replicon, RLuc reporter
[10] = genotype 2a JFH-1 replicon, RLuc reporter
[11] = Hepatitis C virus, read-out: 3a, genotype 3a replicon
[12] = Hepatitis C virus, read-out: 3a, genotype 3a NS5A chimeric replicon
[13] = genotype 2a JFH-1 RLuc replicon

Row | Structure (SMILES) | EC50 [1] | EC50 [2, 8] | EC50 [3] | EC50 [4] | EC50 [5, 9] | EC50 [6, 10] | EC50 [7] | EC50 ([2]; Hepatitis C virus, read-out: 3a, Table 1, genotype 3a NS5A chimeric replicon) | EC50 ([4]; 72 h) | EC50 ([5]; 72 h, Table 1, genotype 1a H77 replicon, 72 hours) | EC50 ([6]; 72 h, Table 1, genotype 2a JFH-1 replicon, 72 hours) | EC50 [2, 11] | EC50 ([5]; genotype 1a replicon) | EC50 ([6]; genotype 2a JFH-1 replicon) | EC50 [2, 12] | EC50 ([5]; genotype 1a H77 RLuc replicon) | EC50 [6, 13] | EC50 ([2]; read-out: 3a, genotype 3a NS5A chimeric 1b Con1 replicon)
1 | COC(=O)N[C@H](C(=O)N1CCC[C@H]1c1ncc(-c2ccc3c(ccc4cc(-c5cnc([C@@H]6CCCN6C(=O)[C@@H](NC(=O)OC)C(C)C)[nH]5)ccc43)c2)[nH]1)C(C)C [Example 282] | 1 to 990 pM | 1 to 990 pM | > 44000 pM | 0.007 nM | 1 to 999 pM | 1 to 999 pM | > 44000 pM |  |  |  |  |  |  |  |  |  |  | 
2 | CC[C@H](NC(=O)OC)C(=O)N1CCC[C@H]1c1ncc(-c2ccc3c4c(ccc3c2)-c2ccc(-c3cnc([C@@H]5CCCN5C(=O)[C@H](NC(=O)OC)c5ccccc5)[nH]3)cc2CO4)[nH]1 [Example 12] | 1 to 990 pM |  | > 44000 pM |  |  |  | > 44000 pM | 1 to 990 pM | 0.008 nM | 1 to 999 pM | 1 to 999 pM |  |  |  |  |  |  | 
3 | COC[C@H]1C[C@@H](c2nc3ccc4cc(-c5ccc6c(ccc7nc([C@@H]8[C@@H]9CC[C@@H](C9)N8C(=O)[C@@H](NC(=O)OC)C(C)C)[nH]c76)c5)ccc4c3[nH]2)N(C(=O)[C@H](NC(=O)OC)c2ccccc2)C1 [Example 451] | 1 to 990 pM |  | 1 to 999 pM | 0.07 nM |  |  | 1 to 999 pM |  |  |  |  | 1 to 990 pM | 1 to 999 pM | 1 to 999 pM |  |  |  | 
4 | O=C(N[C@@H](C(=O)N1CCC[C@H]1c1ncc(-c2cc3c4c(c2)OCc2cc(-c5cnc([C@@H]6CCCN6C(=O)[C@H](NC(=O)C6CCCC6)c6ccccc6)[nH]5)cc(c2-4)OC3)[nH]1)c1ccccc1)C1CCCC1 [Example 489] | 1 to 990 pM |  | 1 to 999 pM | 0.048 nM |  |  | 1 to 999 pM |  |  |  |  |  |  |  | 1 to 990 pM | 1 to 999 pM | 1 to 999 pM | 
5 | COC(=O)N[C@H](C(=O)N1CC2(CC2)C[C@H]1c1nc2ccc3cc(-c4ccc(-c5cnc([C@@H]6[C@H]7CC[C@H](C7)N6C(=O)[C@@H](NC(=O)OC)C(C)C)[nH]5)cc4)ccc3c2[nH]1)C(C)C [Example 387] | 1 to 990 pM |  | > 44000 pM | 0.009 nM |  |  | > 44000 pM |  |  |  |  | 1 to 990 pM | 1 to 999 pM | 1 to 999 pM |  |  |  | 
6 | O=C(C(c1ccccc1)N1CCCOCC1)N1CCC[C@H]1c1ncc(-c2cc3c4c(c2)OCc2cc(-c5cnc([C@@H]6CCCN6C(=O)C(c6ccccc6)N6CCCOCC6)[nH]5)cc(c2-4)OC3)[nH]1 (stereo partly shown) [Example 445] | 1 to 990 pM |  | 1000 to 44000 pM | 0.336 nM |  |  | 1000 to 44000 pM |  |  |  |  | 1 to 990 pM | 1000 to 44000 pM | 1 to 999 pM |  |  |  | 
7 | COC[C@H]1C[C@@H](c2nc3ccc4cc(-c5ccc6c(ccc7nc([C@@H]8C[C@H](C)CN8C(=O)[C@@H](NC(=O)OC)C(C)C)[nH]c76)c5)ccc4c3[nH]2)N(C(=O)[C@H](NC(=O)OC)c2ccccc2)C1 [Example 553] | 1 to 990 pM |  | 1 to 999 pM | 0.014 nM |  |  | 1 to 999 pM |  |  |  |  |  |  |  | 1 to 990 pM | 1 to 999 pM | 1 to 999 pM | 
8 | O=C(N[C@@H](C(=O)N1CCC[C@H]1c1ncc(-c2cc3c4c(c2)OCc2cc(-c5cnc([C@@H]6CCCN6C(=O)[C@H](NC(=O)c6ccccn6)c6ccccc6)[nH]5)cc(c2-4)OC3)[nH]1)c1ccccc1)c1ccccn1 [Example 482] | 1 to 990 pM |  | 1 to 999 pM | 0.034 nM |  |  | 1 to 999 pM |  |  |  |  | 1 to 990 pM | 1 to 999 pM | 1 to 999 pM |  |  |  | 
9 | COC(=O)N[C@H](C(=O)N1CCC[C@H]1c1ncc(-c2ccc3cc(-c4ccc(-c5cnc([C@@H]6C[C@H](F)CN6C(=O)[C@H](NC(=O)OC)c6ccccc6)[nH]5)cc4)ccc3c2)[nH]1)C(C)C [Example 129] | 1 to 990 pM | 1 to 990 pM | > 44000 pM | 0.007 nM | 1 to 999 pM | 1 to 999 pM | > 44000 pM |  |  |  |  |  |  |  |  |  |  | 
10 | CCS[C@H]1C[C@@H](c2nc3ccc4cc(-c5ccc6c(ccc7nc([C@@H]8C[C@H](COC)CN8C(=O)[C@H](NC(=O)OC)c8ccccc8)[nH]c76)c5)ccc4c3[nH]2)N(C(=O)[C@@H](NC(=O)OC)C(C)C)C1 [Example 583] | 1 to 990 pM |  | 1 to 999 pM | 0.018 nM |  |  | 1 to 999 pM |  |  |  |  |  |  |  | 1 to 990 pM | 1 to 999 pM | 1 to 999 pM | 
11 | COC(=O)N[C@H](C(=O)N1[C@@H]2C[C@@H]2C[C@H]1c1nc(Cl)c(-c2ccc(-c3ccc4c(ccc5nc([C@@H]6C[C@H]7C[C@H]7N6C(=O)[C@@H](NC(=O)OC)C(C)C)[nH]c54)c3)cc2F)[nH]1)C(C)C [Example 395] | 1 to 990 pM |  | > 44000 pM | 0.004 nM |  |  | > 44000 pM |  |  |  |  | 1 to 990 pM | 1 to 999 pM | 1 to 999 pM |  |  |  | 
12 | COC(=O)N[C@H](C(=O)N1CCC[C@H]1c1ncc(-c2ccc3cc(-c4ccc(-c5cnc([C@@H]6CCCN6C(=O)[C@H](NC(=O)OC)c6ccccc6)[nH]5)cc4)ccc3c2)[nH]1)[C@@H](C)OC(C)F (stereo partly shown) [Example 128] | 1 to 990 pM | 1 to 990 pM | > 44000 pM | 0.005 nM | 1 to 999 pM | 1 to 999 pM | > 44000 pM |  |  |  |  |  |  |  |  |  |  | 
13 | CC#Cc1cc(-c2cnc([C@@H]3CCCN3C(=O)[C@H](NC(=O)OC)c3ccccc3)[nH]2)ccc1-c1ccc2c(ccc3nc([C@@H]4CCCN4C(=O)[C@@H](NC(=O)OC)C(C)C)[nH]c32)c1 [Example 374] | 1 to 990 pM |  | 1000 to 44000 pM | 0.019 nM |  |  | 1 to 999 pM |  |  |  |  | 1 to 990 pM | 1 to 999 pM | 1 to 999 pM |  |  |  | 
14 | COC(=O)N[C@H](C(=O)N1CCC[C@H]1c1nc2ccc3cc(-c4ccc5c(ccc6nc([C@@H]7CCCN7C(=O)[C@H](NCC(F)(F)F)c7ccccc7)[nH]c65)c4)ccc3c2[nH]1)C(C)C [Example 403] | 1 to 990 pM |  | 1 to 999 pM | 0.014 nM |  |  | 1 to 999 pM |  |  |  |  | 1 to 990 pM | 1 to 999 pM | 1 to 999 pM |  |  |  | 
15 | COC(=O)N[C@H](C(=O)N1CCC[C@H]1c1ncc(-c2ccc3cc(-c4ccc5c(c4)CCc4nc([C@@H]6CCCN6C(=O)[C@@H](NC(=O)OC)C6CCOCC6)[nH]c4-5)ccc3c2)[nH]1)C(C)C [Example 198] | 1 to 990 pM |  | > 44000 pM | 0.018 nM | 1 to 999 pM | 1 to 999 pM | > 44000 pM |  |  |  |  |  |  |  |  |  |  | 1000 to 4990 pM
16 | COC[C@@H]1C[C@@H](c2nc3c([nH]2)-c2cc4c(cc2CC3)-c2ccc(-c3cnc([C@@H]5CCCN5C(=O)[C@@H](NC(=O)OC)C(C)C)[nH]3)cc2CO4)N(C(=O)[C@@H](NC(=O)OC)C(C)C)C1 [Example 493] | 1 to 990 pM |  | 1 to 999 pM | 0.03 nM |  |  | > 44000 pM |  |  |  |  |  |  |  | 1 to 990 pM | 1 to 999 pM | 1 to 999 pM | 
